Results reported in patent publication US20260356860A1, “2-SUBSTITUTED 3,4A,5,7,8,8A-HEXAHYDRO-4H-THIOPYRANO[4,3-DJPYRIMIDIN-4-ONES FOR WOUND TREATMENT” (priority 2022, published 2026).

Experiments:
[1] = target: T1, Tankyrase 2 (TNKS2) (Homo sapiens, UniProt Q9H2K2); experiment: TNK2 Binding Assay (Tankyrase 2 ribosylation, chemiluminescence); type: biochemical
T1 sequence (Q9H2K2 1-1166): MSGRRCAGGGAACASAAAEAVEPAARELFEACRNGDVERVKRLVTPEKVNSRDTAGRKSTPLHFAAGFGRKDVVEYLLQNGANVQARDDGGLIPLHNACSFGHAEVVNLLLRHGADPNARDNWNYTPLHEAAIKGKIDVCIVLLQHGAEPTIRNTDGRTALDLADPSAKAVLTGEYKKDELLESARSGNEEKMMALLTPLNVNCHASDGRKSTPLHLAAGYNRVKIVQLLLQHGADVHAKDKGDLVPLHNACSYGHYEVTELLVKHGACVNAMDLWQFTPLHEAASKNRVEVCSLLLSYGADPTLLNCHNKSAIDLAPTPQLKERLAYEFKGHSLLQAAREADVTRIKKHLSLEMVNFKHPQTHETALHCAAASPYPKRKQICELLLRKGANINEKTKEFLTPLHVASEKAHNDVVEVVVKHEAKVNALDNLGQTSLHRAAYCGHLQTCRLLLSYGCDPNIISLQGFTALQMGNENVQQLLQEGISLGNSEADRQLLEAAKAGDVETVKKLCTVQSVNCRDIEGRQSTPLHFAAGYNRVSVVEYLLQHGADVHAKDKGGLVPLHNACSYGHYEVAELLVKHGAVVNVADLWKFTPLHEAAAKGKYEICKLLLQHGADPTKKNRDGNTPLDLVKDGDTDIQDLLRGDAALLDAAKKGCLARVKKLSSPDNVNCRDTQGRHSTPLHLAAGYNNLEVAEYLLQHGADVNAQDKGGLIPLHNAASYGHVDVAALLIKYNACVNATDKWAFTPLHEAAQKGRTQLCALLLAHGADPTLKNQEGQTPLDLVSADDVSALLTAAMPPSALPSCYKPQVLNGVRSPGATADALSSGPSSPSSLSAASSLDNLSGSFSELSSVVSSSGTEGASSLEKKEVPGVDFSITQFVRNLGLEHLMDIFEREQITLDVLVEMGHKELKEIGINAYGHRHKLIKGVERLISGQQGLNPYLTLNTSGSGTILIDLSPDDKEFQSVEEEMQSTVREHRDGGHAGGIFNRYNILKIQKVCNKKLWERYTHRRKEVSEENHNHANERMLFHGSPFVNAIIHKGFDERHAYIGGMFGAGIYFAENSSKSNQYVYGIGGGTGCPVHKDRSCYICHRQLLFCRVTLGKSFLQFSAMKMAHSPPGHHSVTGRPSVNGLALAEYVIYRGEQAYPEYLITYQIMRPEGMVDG
Method: Tankyrase 2 assay (n=3) was performed with the following steps: step 1, coating a 96-well plate with 50 μL/well of histone solution; step 2, conducting ribosylation reaction; and step 3, detection.
Step 1: Coating a 96-Well Plate with 50 μL/Well of Histone Solution.
A 5× histone mixture was diluted 1:5 with PBS to make a 1× histone in PBS mixture. 50 μL of the histone mixture was added to each well and incubated at 4° C. overnight. The plate was washed three times using 200 μL PBST buffer (1×PBS containing 0.05% Tween*20 (polysorbate 20) per well. The plate was tapped onto a clean paper towel to remove the liquid. The wells were blocked by adding 200 μL of blocking buffer 3 to each well. The plate was incubated at room temperature for at least 90 minutes. The plate was washed three times with 200 μL PBST buffer. The plate was tapped onto a clean paper towel to remove the liquid.
A fresh solution of 10 mM DTT in water was prepared.
A master mix was prepared and delivered to each well (25 μL/well). Master mix delivered to each well: (2.5 μL of 10×PARP assay buffer (purchased from BPS Bioscience)+2.5 μL of PARP substrate mixture 2+17.5 μL of water+2.5 μL of 10 mM fresh DTT). The concentration of DTT in the master mix was 1 mM. 25 μL of master mix was added to each well.
1×PARP buffer with DTT was prepared. 10×PARP assay buffer was diluted to 1×PARP assay buffer containing DTT by adding 1 volume of 10×PARP assay buffer+1 volume of 10 mM DTT+8 volumes of water. The concentration of DTT in the 1×PARP assay buffer was 1 mM.
5 μL of a test inhibitor was added to each well labeled as “Test Inhibitor.” For the “Positive Control,” the PARP inhibitor, XAV939, was used. For the negative control, no inhibitor is added to the assay mix.
The Tankyrase 2 (TNKS2) enzyme on ice was thawed. The tube containing the enzyme was spun briefly to recover the full content of the tube. The amount of TNKS2 enzyme required for the assay was calculated and the enzyme was diluted to 0.5 ng/μL with 1×PARP assay buffer with DTT. 16) The final concentration of TNKS2 enzyme in the assay was 2 nM. The reaction was initiated by adding 10 μL of diluted TNKS2 enzyme to each well designated “Positive Control” and “Test Inhibitor.” To each well designated as “Blank,” 10 μL of 1×PARP assay buffer with DTT was added. The plate was incubated at room temperature for 1 hour. The plate was washed three times with 100 μL of PBST buffer and the plate was tapped onto a clean paper towel.
1) Streptavidin-HRP was diluted 1:50 in Blocking buffer (purchased from BPS Bioscience) 3.50 μL of diluted Streptavidin-RP was added to each well and incubated for 30 minutes at room temperature. The plate was washed three times with 100 μL of PBST buffer and tapped onto a clean paper towel. Just before use, 1 volume of ELISA ECL Substrate A and 1 volume of ELISA ECL Substrate B were mixed on ice; and 100 μL was added to each well. Immediately, the plate was read in a luminometer or microtiter-plate reader capable of reading chemiluminescence. The “Blank” value was subtracted from all other values.

[2] = test system: HEK293 SuperTOPFlash reporter cells, Wnt promoter; experiment: HEK CELL Wnt Assay (luciferase reporter); type: cell-based; details: for IC50: serial dilutions, with or without 50 ng/mL Wnt3a, 18 h
Method: In order to determine the effect of the compounds of Formula (I) on Wnt inhibition, an in vitro assay using HEK293 SuperTOPFlash reporter cells, with the Wnt promoter driving a luciferase reporter gene, were utilized. 40,000 HEK293 SuperTOPFlash reporter cells were seeded, per well, in a 48 well plate for 24 hours, prior to administration of serial dilutions of the compound of Formula (I) to individual wells. Serial dilutions ranging from […] to 1 nM of the compound of Formula (I) were added with or without 50 ng/mL Wnt3a (Time Biosciences) and allowed to incubate with the reporter cells for 18 hours. Reporter cells with no treatment were used as negative control.

SMILES	IC50 [1] [nM]	IC50 [2] [nM]	solubility remark in HEK CELL Wnt assay [2]
O=c1[nH]c(-c2ccc(-c3ccc(B(O)O)cc3O)cc2)nc2c1CSCC2 [Compound 28, (2-hydroxy-4′-(4-oxo-3,5,7,8-tetrahydro-4H-thiopyrano[4,3-d]pyrimidin-2-yl)-[1,1′-biphenyl]-4-yl)boronic acid]	2	2	–
O=c1[nH]c(-c2cc(F)c(-c3ccc(Br)nc3)c(F)c2)nc2c1CSCC2 [Compound 21, 2-(4-(6-bromopyridin-3-yl)-3,5-difluorophenyl)-3,5,7,8-tetrahydro-4H-thiopyrano[4,3-d]pyrimidin-4-one]	12	2000	–
COCCOC(C)(C)c1c(F)cc(-c2nc3c(c(=O)[nH]2)CSCC3)cc1F [Compound 16, 2-(3,5-difluoro-4-(2-(2-methoxyethoxy)propan-2-yl)phenyl)-3,5,7,8-tetrahydro-4H-thiopyrano[4,3-d]pyrimidin-4-one]	50	400	–
COCCOC(C)(C)c1ccc(-c2nc3c(c(=O)[nH]2)CSCC3)cc1 [Compound 17, 2-(4-(2-(2-methoxyethoxy)propan-2-yl)phenyl)-3,5,7,8-tetrahydro-4H-thiopyrano[4,3-d]pyrimidin-4-one]	3	60	–
O=c1[nH]c(-c2cc(F)c(B(O)O)c(F)c2)nc2c1CSCC2 [Compound 14, (2,6-difluoro-4-(4-oxo-3,5,7,8-tetrahydro-4H-thiopyrano[4,3-d]pyrimidin-2-yl)phenyl)boronic acid]	11	8000	–
O=c1[nH]c(-c2ccc(-c3ccc(Br)nc3)nc2)nc2c1CSCC2 [Compound 19, 2-(6′-bromo-[2,3′-bipyridin]-5-yl)-3,5,7,8-tetrahydro-4H-thiopyrano[4,3-d]pyrimidin-4-one]	40	2500	–
O=c1[nH]c(-c2ccc3c(c2)COB3O)nc2c1CSCC2 [Compound 3, 2-(1-hydroxy-1,3-dihydrobenzo[c][1,2]oxaborol-5-yl)-7,8-dihydro-3H-thiopyrano [4,3-d]pyrimidin-4 (5H)-one]	28	7500	–
O=c1[nH]c(-c2c(F)cc(-c3ccc(B(O)O)cc3)cc2F)nc2c1CSCC2 [Compound 25, (3′,5′-difluoro-4′-(4-oxo-3,5,7,8-tetrahydro-4H-thiopyrano[4,3-d]pyrimidin-2-yl)-[1,1′-biphenyl]-4-yl)boronic acid]	63	2500	–
O=c1[nH]c(-c2ccc(-c3ccc(B(O)O)cc3)cc2O)nc2c1CSCC2 [Compound 26, (3′-hydroxy-4′-(4-oxo-3,5,7,8-tetrahydro-4H-thiopyrano[4,3-d]pyrimidin-2-yl)-[1,1′-biphenyl]-4-yl)boronic acid]	24	652	–
O=c1[nH]c(-c2ccc(-c3ccc(B(O)O)cn3)cc2)nc2c1CSCC2 [Compound 22, (6-(4-(4-oxo-3,5,7,8-tetrahydro-4H-thiopyrano[4,3-d]pyrimidin-2-yl)phenyl)pyridin-3-yl)boronic acid]	4	250	–
O=c1[nH]c(/C=C/c2ccc(C(F)(F)F)cc2)nc2c1CSCC2 [Compound 6, (E)-2-(4-(trifluoromethyl)styryl)-3,5,7,8-tetrahydro-4H-thiopyrano[4,3-d]pyrimidin-4-one]	2500	2000	–
O=c1[nH]c(-c2ccc(-c3nc4c(c(=O)[nH]3)CSCC4)cc2)no1 [Compound 4, 3-(4-(4-oxo-3,5,7,8-tetrahydro-4H-thiopyrano[4,3-d]pyrimidin-2-yl)phenyl)-1,2,4-oxadiazol-5 (4H)-one]	13	> 10000	–
O=c1[nH]c(-c2ccc(-c3ccc(B(O)O)c(O)c3)cc2)nc2c1CSCC2 [Compound 27, (3-hydroxy-4′-(4-oxo-3,5,7,8-tetrahydro-4H-thiopyrano[4,3-d]pyrimidin-2-yl)-[1,1′-biphenyl]-4-yl)boronic acid]	2	36	–
COC(=O)NCCOC(C)(C)c1ccc(-c2ccc(-c3nc4c(c(=O)[nH]3)CSCC4)cc2)cc1 [Compound 29, methyl (2-((2-(4′-(4-oxo-3,5,7,8-tetrahydro-4H-thiopyrano[4,3-d]pyrimidin-2-yl)-[1,1′-biphenyl]-4-yl)propan-2-yl)oxy)ethyl)carbamate]	1	100	–
O=c1[nH]c(-c2ccc(-c3ncc(B(O)O)cn3)cc2)nc2c1CSCC2 [Compound 24, (2-(4-(4-oxo-3,5,7,8-tetrahydro-4H-thiopyrano[4,3-d]pyrimidin-2-yl)phenyl)pyrimidin-5-yl)boronic acid]	3	500	–
O=c1[nH]c(/C=C/c2ccc(C(F)(F)F)c(B(O)O)c2)nc2c1CSCC2 [Compound 5, (E)-(5-(2-(4-oxo-3,5,7,8-tetrahydro-4H-thiopyrano[4,3-d]pyrimidin-2-yl)vinyl)-2-(trifluoromethyl)phenyl)boronic acid]	–	5000	–
O=c1[nH]c(-c2ccc(-c3cnc(OCCO)nc3)cc2)nc2c1CSCC2 [Compound 11, 2-(4-(2-(2-hydroxyethoxy)pyrimidin-5-yl)phenyl)-3,5,7,8-tetrahydro-4H-thiopyrano[4,3-d]pyrimidin-4-one]	21	100	solubility issue
CC(C)(OCCO)c1ccc(-c2ccc(-c3nc4c(c(=O)[nH]3)CSCC4)cc2)cc1 [Compound 12, 2-(4′-(2-(2-hydroxyethoxy)propan-2-yl)-[1,1′-biphenyl]-4-yl)-3,5,7,8-tetrahydro-4H-thiopyrano[4,3-d]pyrimidin-4-one]	6.5	3	–
